Results taken from PMC9163592 (The Journal of Biological Chemistry, 2022).

What was measured:
IsdH linker-NEAT3 = IsdH linker-NEAT3 (Staphylococcus aureus, UniProt Q931P4); test: biochemical
IsdH NEAT3 = IsdH NEAT3 (Staphylococcus aureus, UniProt Q931P4); test: biochemical
IsdH NEAT3, sequence (Q931P4 539-664): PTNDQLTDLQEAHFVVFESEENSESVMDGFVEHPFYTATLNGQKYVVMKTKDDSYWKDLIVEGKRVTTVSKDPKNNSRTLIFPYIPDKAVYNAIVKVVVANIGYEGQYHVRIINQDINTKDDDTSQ

IsdH linker-NEAT3, sequence (Q931P4 486-664): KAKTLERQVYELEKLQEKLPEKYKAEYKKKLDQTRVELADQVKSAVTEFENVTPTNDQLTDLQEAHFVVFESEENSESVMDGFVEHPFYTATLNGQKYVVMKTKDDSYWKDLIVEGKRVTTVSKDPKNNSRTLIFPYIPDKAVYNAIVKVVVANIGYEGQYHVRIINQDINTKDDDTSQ

Structure (SMILES): C=CC1=C(C)C2=Cc3c(C=C)c(C)c4[n]3[Fe]([Cl])[n]3c(c(C)c(CCC(=O)O)c3=CC3=NC(=C4)C(C)=C3CCC(=O)O)=CC1=N2 [heme]
- Kd (IsdH linker-NEAT3): 510 ± 160 pM
- Kd (IsdH NEAT3): 1050 ± 150 pM
